How the values were obtained:
ERK2 = ERK2 (Homo sapiens, UniProt P28482); test: Ambit kinase phage display ATP-binding-site ligand binding assay; details: read-out: percent inhibition of binding
Source text: (§4) In this assay, protein kinases are cloned into T7 bacteriophage which express the kinase fusion proteins on the phage capsid. T7 kinase-tagged phage are then screened for binding to ATP-binding-site ligands that have been immobilized on a solid support. Phage are screened for binding to the anchored ligands both in the presence of test compound and in its absence (control). Elution of the bound phage by free ligand (ATP-binding site ligand that is not immobilized on a solid support) followed by determination of the phage titre provides a reliable measure of the ability of test compounds to block binding of target kinases to resin-bound ATP-binding-site ligands.
(§5) T7 kinase-tagged phage strains were grown in parallel in microtiter plates in a proprietary bacterial host derived from E. Coli strain BL21. E. Coli were grown to a log phase, infected with T7 kinase-tagged phage, and incubated while shaking at 32° C. until bacterial lysis (approx. 90 min). Lysates were centrifuged (6,000 g) and filtered (0.2 μm). Small molecule ATP-binding-site-specific ligands were anchored to solid supports via a two step process beginning with biotin conjugation followed by treatment of the biotin/small molecule conjugate with streptavidin-coated magnetic beads. […] The phage titre of the eluates was measured by quantitative PCR or by plaque assays. […]

ABL1 = ABL1 (Homo sapiens, UniProt P00519); test: SignalChem radioisotope protein kinase assay; type: biochemical; details: 5 μl of 100 μM stock solution in 25 μl
Source text: (§1) The various protein kinase targets to be employed in the kinase profiling assay were cloned, expressed and purified in-house at SignalChem (Richmond, BC, Canada) using proprietary methods. Quality control testing is routinely performed on each of the SignalChem targets to ensure compliance to acceptable standards. Protein substrates employed in the target profiling process were synthesized internally. ^33P-ATP was purchased from PerkinElmer. All other materials were of standard grade. Compound 10 (FIG. 4) was supplied to SignalChem in a powder form. It was reconstituted in DMSO to form a stock solution which was then diluted with 10% DMSO to form a working stock solution (100 μM) that was then profiled against the various protein kinase targets. The assay conditions for the various protein kinase targets were optimized to yield acceptable enzymatic activity. In addition, the assays were optimized to give high signal-to-noise ratio.
(§2) SignalChem uses a radioisotope assay format for profiling evaluation of protein kinase targets. Protein kinase assays were performed in triplicate at ambient temperature for 20-40 min (depending on the target) in a final volume of 25 μl according to the following assay reaction recipe: • Component 1: 5 μl of diluted active protein kinase target (˜10-40 nM final protein concentration in the assay) • Component 2: 5 μl of stock solution of substrate (1-5 μg of peptide or protein substrate) • Component 3: 5 μl of kinase assay buffer or protein kinase activator in kinase assay buffer • Component 4: 5 μl of Compound 10 (100 μM stock solution) or 10% DMSO • Component 5: 5 μl of 33P-ATP (25 μM stock solution, 0.8 μCi)
(§3) The assay was initiated by the addition of ^33P-ATP and the reaction mixture incubated at ambient temperature for 20-40 minutes, depending on the protein kinase target. After the incubation period, the assay was terminated by spotting 10 μl of the reaction mixture onto a Millipore Multiscreen plate. The Millipore Multiscreen plate was washed 3 times for approximately 15 minutes each in a 1% phosphoric acid solution. The radioactivity on the P81 plate was counted in the presence of scintillation fluid in a Trilux scintillation counter. Blank control, which included all the assay components except the addition of the appropriate substrate (replaced with equal volume of assay dilution buffer), was set up for each protein kinase target. The corrected activity for each protein kinase target was determined by removing the blank control value.

PKCα = target: T1, PKCα (Homo sapiens, UniProt P17252); test: SignalChem radioisotope protein kinase assay; type: biochemical; details: 5 μl of 100 μM stock solution in 25 μl
T1 construct: purchased SignalChem
Source text: as §1, §2, §3

RSK2 = target: T2, RSK2 (Homo sapiens, UniProt P51812); test: SignalChem radioisotope protein kinase assay; type: biochemical; details: 5 μl of 100 μM stock solution in 25 μl
T2 construct: purchased SignalChem
T2 sequence (P51812 whole entry, species assumed): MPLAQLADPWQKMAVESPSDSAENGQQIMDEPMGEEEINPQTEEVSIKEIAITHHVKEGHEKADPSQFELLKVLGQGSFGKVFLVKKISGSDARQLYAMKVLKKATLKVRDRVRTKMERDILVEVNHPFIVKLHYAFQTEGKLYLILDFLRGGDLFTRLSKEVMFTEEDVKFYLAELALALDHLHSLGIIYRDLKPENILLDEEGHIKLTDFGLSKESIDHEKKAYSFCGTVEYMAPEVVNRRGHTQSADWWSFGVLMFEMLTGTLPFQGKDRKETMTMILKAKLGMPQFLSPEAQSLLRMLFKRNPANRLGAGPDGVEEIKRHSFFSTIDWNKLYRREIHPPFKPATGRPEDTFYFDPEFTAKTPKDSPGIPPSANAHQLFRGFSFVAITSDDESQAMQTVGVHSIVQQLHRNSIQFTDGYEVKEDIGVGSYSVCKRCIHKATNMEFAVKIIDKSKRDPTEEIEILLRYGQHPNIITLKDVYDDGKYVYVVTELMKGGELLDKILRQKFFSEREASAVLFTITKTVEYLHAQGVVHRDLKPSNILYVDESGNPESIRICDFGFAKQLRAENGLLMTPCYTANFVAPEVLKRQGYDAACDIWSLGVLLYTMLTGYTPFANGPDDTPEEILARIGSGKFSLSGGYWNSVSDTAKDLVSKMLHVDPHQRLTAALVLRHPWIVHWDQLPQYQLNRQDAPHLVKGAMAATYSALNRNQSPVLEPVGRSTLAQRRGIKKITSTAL
Source text: as §1, §2, §3

PAK2 = PAK2 (Homo sapiens, UniProt Q13177); test: SignalChem radioisotope protein kinase assay; type: biochemical; details: 5 μl of 100 μM stock solution in 25 μl
Source text: as §1, §2, §3

PDGFRβ = PDGFRβ (Homo sapiens, UniProt P09619); test: SignalChem radioisotope protein kinase assay; type: biochemical; details: 5 μl of 100 μM stock solution in 25 μl
Source text: as §1, §2, §3

AKT2 = AKT2 (Homo sapiens, UniProt P31751); test: SignalChem radioisotope protein kinase assay; type: biochemical; details: 5 μl of 100 μM stock solution in 25 μl
Chain of AKT2 (P31751 whole entry, species assumed): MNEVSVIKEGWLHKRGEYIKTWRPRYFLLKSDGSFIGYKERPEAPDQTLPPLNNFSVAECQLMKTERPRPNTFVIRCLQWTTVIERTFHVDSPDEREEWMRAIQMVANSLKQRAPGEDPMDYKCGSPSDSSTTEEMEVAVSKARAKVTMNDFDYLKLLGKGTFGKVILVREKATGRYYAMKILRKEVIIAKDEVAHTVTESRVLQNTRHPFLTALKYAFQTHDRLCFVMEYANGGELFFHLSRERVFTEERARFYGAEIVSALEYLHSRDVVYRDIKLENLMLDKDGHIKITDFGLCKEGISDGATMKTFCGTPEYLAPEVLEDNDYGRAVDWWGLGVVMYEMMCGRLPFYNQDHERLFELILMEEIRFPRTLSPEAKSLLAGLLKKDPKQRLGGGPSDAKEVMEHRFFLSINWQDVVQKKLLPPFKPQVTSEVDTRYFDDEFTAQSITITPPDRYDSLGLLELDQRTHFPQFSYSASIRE
Source text: as §1, §2, §3

HCK = HCK (Homo sapiens, UniProt P08631); test: SignalChem radioisotope protein kinase assay; type: biochemical; details: 5 μl of 100 μM stock solution in 25 μl
Chain of HCK (P08631 whole entry, species assumed): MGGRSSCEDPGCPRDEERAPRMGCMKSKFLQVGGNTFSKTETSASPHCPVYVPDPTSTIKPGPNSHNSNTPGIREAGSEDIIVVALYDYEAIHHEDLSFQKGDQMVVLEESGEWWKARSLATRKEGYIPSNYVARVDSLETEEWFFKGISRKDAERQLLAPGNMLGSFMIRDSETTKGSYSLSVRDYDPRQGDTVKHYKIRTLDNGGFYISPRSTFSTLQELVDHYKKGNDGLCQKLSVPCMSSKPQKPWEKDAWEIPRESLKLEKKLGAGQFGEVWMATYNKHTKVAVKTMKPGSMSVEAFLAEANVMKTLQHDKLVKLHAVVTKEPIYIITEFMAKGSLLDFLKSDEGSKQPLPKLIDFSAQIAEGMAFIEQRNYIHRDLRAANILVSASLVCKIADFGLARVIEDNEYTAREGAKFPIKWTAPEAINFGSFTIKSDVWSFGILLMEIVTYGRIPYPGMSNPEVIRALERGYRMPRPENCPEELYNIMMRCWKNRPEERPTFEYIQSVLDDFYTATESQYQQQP
Source text: as §1, §2, §3

PIM1 = PIM1 (Homo sapiens, UniProt P11309); test: SignalChem radioisotope protein kinase assay; type: biochemical; details: 5 μl of 100 μM stock solution in 25 μl
Chain of PIM1 (P11309 whole entry, species assumed): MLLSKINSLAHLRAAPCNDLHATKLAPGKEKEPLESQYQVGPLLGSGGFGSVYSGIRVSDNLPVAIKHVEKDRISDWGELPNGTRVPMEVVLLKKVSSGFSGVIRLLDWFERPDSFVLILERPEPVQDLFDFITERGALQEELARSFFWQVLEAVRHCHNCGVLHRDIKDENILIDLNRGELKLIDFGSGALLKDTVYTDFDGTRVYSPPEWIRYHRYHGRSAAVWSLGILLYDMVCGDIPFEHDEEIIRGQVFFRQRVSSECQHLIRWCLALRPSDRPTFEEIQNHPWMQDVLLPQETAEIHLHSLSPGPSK
Source text: as §1, §2, §3

LYN B = LYN B (Homo sapiens, UniProt P07948); test: SignalChem radioisotope protein kinase assay; type: biochemical; details: 5 μl of 100 μM stock solution in 25 μl
Source text: as §1, §2, §3

AKT1 = AKT1 (Homo sapiens, UniProt P31749); test: SignalChem radioisotope protein kinase assay; type: biochemical; details: 5 μl of 100 μM stock solution in 25 μl
Source text: as §1, §2, §3

p38β = p38β (Homo sapiens, UniProt Q15759); test: SignalChem radioisotope protein kinase assay; type: biochemical; details: 5 μl of 100 μM stock solution in 25 μl
Chain of p38β (Q15759 whole entry): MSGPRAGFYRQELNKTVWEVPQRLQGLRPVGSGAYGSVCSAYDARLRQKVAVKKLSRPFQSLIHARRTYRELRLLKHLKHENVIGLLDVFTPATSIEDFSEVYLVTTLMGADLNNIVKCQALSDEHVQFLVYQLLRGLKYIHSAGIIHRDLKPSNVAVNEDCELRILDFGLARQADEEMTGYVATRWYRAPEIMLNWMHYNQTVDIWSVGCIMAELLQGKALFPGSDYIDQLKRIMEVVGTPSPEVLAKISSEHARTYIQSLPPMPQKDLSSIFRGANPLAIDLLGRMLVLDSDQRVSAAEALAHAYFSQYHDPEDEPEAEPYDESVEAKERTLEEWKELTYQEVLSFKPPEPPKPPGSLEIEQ
Source text: as §1, §2, §3

AKT3 = AKT3 (Homo sapiens, UniProt Q9Y243); test: SignalChem radioisotope protein kinase assay; type: biochemical; details: 5 μl of 100 μM stock solution in 25 μl
Chain of AKT3 (Q9Y243 whole entry, species assumed): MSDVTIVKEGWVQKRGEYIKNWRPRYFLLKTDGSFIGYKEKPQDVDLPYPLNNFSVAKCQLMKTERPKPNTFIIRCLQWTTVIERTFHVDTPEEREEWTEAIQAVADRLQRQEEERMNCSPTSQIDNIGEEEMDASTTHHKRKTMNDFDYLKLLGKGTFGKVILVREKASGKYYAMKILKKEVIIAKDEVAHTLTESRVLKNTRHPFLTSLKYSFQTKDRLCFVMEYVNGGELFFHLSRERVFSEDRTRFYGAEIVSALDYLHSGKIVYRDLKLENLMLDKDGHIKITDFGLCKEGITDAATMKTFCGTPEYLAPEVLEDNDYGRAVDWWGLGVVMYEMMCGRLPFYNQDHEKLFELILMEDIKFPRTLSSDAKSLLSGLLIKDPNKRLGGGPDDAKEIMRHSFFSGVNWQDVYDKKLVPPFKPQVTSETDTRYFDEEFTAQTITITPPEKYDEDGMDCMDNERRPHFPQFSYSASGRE
Source text: as §1, §2, §3

HER2 = HER2 (Homo sapiens, UniProt P04626); test: SignalChem radioisotope protein kinase assay; type: biochemical; details: 5 μl of 100 μM stock solution in 25 μl
Source text: as §1, §2, §3

NEK6 = NEK6 (Homo sapiens, UniProt Q9HC98); test: SignalChem radioisotope protein kinase assay; type: biochemical; details: 5 μl of 100 μM stock solution in 25 μl
Source text: as §1, §2, §3

FGR = FGR (Homo sapiens, UniProt P09769); test: SignalChem radioisotope protein kinase assay; type: biochemical; details: 5 μl of 100 μM stock solution in 25 μl
Source text: as §1, §2, §3

PAK3 = PAK3 (Homo sapiens, UniProt O75914); test: SignalChem radioisotope protein kinase assay; type: biochemical; details: 5 μl of 100 μM stock solution in 25 μl
Chain of PAK3 (O75914 whole entry, species assumed): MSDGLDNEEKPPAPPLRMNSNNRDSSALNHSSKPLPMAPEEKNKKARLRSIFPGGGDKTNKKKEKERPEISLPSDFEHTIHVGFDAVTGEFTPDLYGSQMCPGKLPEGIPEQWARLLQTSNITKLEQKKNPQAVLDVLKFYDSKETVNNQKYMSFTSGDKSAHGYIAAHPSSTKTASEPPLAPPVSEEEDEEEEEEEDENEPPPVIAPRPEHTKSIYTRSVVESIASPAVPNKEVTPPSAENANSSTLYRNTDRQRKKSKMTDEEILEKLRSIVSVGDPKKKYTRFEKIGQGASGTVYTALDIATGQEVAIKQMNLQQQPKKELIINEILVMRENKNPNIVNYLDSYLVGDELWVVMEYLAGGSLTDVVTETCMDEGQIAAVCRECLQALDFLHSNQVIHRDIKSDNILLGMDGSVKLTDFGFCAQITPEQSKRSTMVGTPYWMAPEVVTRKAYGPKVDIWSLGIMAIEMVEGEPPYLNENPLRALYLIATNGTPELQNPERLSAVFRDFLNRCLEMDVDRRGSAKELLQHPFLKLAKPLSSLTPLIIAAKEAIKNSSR
Source text: as §1, §2, §3

AURORA A = AURORA A (Homo sapiens, UniProt O14965); test: SignalChem radioisotope protein kinase assay; type: biochemical; details: 5 μl of 100 μM stock solution in 25 μl
Source text: as §1, §2, §3

MARK3 = MARK3 (Homo sapiens, UniProt P27448); test: SignalChem radioisotope protein kinase assay; type: biochemical; details: 5 μl of 100 μM stock solution in 25 μl
Source text: as §1, §2, §3

PDK1 = PDK1 (Homo sapiens, UniProt O15530); test: SignalChem radioisotope protein kinase assay; type: biochemical; details: 5 μl of 100 μM stock solution in 25 μl
Chain of PDK1 (O15530 whole entry): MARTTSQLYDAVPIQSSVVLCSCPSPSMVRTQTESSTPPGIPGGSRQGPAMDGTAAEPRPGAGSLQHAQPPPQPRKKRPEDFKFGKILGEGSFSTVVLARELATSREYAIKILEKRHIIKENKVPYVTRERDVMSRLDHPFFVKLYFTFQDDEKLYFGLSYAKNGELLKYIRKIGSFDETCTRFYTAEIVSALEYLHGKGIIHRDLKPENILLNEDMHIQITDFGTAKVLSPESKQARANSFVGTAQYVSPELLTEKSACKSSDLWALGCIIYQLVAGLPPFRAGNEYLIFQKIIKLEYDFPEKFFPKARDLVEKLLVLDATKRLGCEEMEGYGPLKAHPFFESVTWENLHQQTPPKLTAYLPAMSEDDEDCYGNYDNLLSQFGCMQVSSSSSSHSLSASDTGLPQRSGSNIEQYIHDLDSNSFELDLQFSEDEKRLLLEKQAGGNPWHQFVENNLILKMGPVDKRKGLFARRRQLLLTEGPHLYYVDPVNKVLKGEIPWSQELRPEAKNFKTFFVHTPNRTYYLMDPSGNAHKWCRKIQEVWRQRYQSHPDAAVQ
Source text: as §1, §2, §3

BRK = BRK (Homo sapiens, UniProt Q13882); test: SignalChem radioisotope protein kinase assay; type: biochemical; details: 5 μl of 100 μM stock solution in 25 μl
Source text: as §1, §2, §3

PAK4 = PAK4 (Homo sapiens, UniProt O96013); test: SignalChem radioisotope protein kinase assay; type: biochemical; details: 5 μl of 100 μM stock solution in 25 μl
Chain of PAK4 (O96013 whole entry, species assumed): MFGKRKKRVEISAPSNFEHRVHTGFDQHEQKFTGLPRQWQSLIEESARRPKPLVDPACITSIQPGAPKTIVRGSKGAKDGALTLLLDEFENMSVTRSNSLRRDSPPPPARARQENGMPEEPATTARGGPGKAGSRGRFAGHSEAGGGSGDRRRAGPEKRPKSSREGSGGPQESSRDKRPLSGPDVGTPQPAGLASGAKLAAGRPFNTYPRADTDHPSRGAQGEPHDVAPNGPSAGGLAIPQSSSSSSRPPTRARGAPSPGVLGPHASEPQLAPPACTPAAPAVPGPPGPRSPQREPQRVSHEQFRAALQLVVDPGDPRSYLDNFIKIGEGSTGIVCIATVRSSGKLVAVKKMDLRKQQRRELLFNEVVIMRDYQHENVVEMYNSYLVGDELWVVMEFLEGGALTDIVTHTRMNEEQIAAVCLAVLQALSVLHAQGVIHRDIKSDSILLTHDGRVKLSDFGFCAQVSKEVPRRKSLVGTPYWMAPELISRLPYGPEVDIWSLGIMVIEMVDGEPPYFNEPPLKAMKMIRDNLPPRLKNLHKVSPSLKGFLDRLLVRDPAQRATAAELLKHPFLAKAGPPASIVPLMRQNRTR
Source text: as §1, §2, §3

FLT3 = FLT3 (Homo sapiens, UniProt P36888); test: SignalChem radioisotope protein kinase assay; type: biochemical; details: 5 μl of 100 μM stock solution in 25 μl
Source text: as §1, §2, §3

ALK6 = ALK6 (Homo sapiens, UniProt O00238); test: Ambit kinase phage display ATP-binding-site ligand binding assay; details: read-out: % Inhibition of binding to ATP-binding-site ligand
Source text: This assay is based on ligand-affinity/protein kinase phage display and was employed essentially as described by Fabian et. al [Nature Biotech. […] In this assay, protein kinases are cloned into T7 bacteriophage which express the kinase fusion proteins on the phage capsid. T7 kinase-tagged phage are then screened for binding to ATP-binding-site ligands that have been immobilized on a solid support. Phage are screened for binding to the anchored ligands both in the presence of test compound and in its absence (control). Elution of the bound phage by free ligand (ATP-binding site ligand that is not immobilized on a solid support) followed by determination of the phage titre provides a reliable measure of the ability of test compounds to block binding of target kinases to resin-bound ATP-binding-site ligands.
T7 kinase-tagged phage strains were grown in parallel in microtiter plates in a proprietary bacterial host derived from E. Coli strain BL21. E. Coli were grown to a log phase, infected with T7 kinase-tagged phage, and incubated while shaking at 32° C. until bacterial lysis (approx. 90 min). Lysates were centrifuged (6,000 g) and filtered (0.2 μm). […] The phage titre of the eluates was measured by quantitative PCR or by plaque assays. […]

CSNK1G2 = CSNK1G2 (Homo sapiens, UniProt P78368); test: as above; details: read-out: % Inhibition of binding to ATP-binding-site ligand
Source text: as §4, §5

BTK = BTK (Homo sapiens, UniProt Q06187); test: SignalChem radioisotope protein kinase assay; type: biochemical; parameters: host or cells: T7 phage in an E. coli BL21-derived host; details: 5 μl of 100 μM stock solution in 25 μl
Source text: as §1, with “ratio. […]” for “ratio.”
The assay was initiated by the addition of ^33P-ATP and the reaction mixture incubated at ambient temperature for 20-40 minutes, depending on the protein kinase target. […] The radioactivity on the P81 plate was counted in the presence of scintillation fluid in a Trilux scintillation counter. […] The corrected activity for each protein kinase target was determined by removing the blank control value.

ABL1(F317) = test: Ambit kinase phage display ATP-binding-site ligand binding assay; details: 10 μM
Source text: as §4, §5

Chain of ERK2 (P28482 whole entry, species assumed): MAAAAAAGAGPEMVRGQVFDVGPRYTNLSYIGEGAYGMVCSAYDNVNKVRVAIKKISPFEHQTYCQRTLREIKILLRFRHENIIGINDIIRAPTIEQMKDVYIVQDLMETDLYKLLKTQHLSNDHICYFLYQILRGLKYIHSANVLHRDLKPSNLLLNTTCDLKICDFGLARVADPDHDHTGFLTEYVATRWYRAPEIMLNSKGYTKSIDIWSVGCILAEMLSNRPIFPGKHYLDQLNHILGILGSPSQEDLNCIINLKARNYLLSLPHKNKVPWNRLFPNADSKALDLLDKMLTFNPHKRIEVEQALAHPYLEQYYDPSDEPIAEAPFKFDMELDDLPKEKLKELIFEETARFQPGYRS

With `CCOC(=O)C[C@@H]1C(O[Si](C)(C)C(C)(C)C)[C@H](n2cnc3c(NC(=O)Nc4ccccc4)ncnc32)O[C@@H]1CNC(=O)NC` (stereo partly drawn) [Compound 10] the inhibition at 10 µM (ERK2) was 20 to 29%, the “% Activity Change” value (ABL1) was 0% and the “% Activity Change” value (PKCα) was 36%. The “% Activity Change” value (RSK2) was −4%, the “% Activity Change” value (PAK2) was 16% and the “% Activity Change” value (PDGFRβ) was −7%. The “% Activity Change” value (AKT2) was 27%, the “% Activity Change” value (HCK) was 18% and the “% Activity Change” value (PIM1) was 51%. The “% Activity Change” value (LYN B) was 12%, the “% Activity Change” value (AKT1) was 2% and the “% Activity Change” value (p38β) was 15%. The “% Activity Change” value (AKT3) was 52%, the “% Activity Change” value (HER2) was 4% and the “% Activity Change” value (NEK6) was 28%. For the same compound, the “% Activity Change” value (FGR) was 3%, the “% Activity Change” value (PAK3) was 524% and the “% Activity Change” value (AURORA A) was 1%. For the same compound, the “% Activity Change” value (MARK3) was −1%, the “% Activity Change” value (PDK1) was 8% and the “% Activity Change” value (BRK) was 2%. The “% Activity Change” value (PAK4) was −20%, the “% Activity Change” value (FLT3) was 11% and the inhibition at 10 µM (ALK6) was 47%. For the same compound, the inhibition at 10 µM (CSNK1G2) was 38%, the “% Activity Change” value (BTK) was 10% and the “percent inhibition of binding” value (ABL1(F317)) was 20-29%.
